In PMC5908784, “Extracellular loops 2 and 3 of the calcitonin receptor selectively modify agonist binding and efficacy” (Biochemical Pharmacology, 2018):
Changes are numbered by the printed parent chain. Where no end group is shown, it is not given here.

Tests used:
Experiment in all cases: Homologous whole cell competition binding
Details in all cases: homologous competition of 125I-sCT(8-32), whole cells, mean ± S.E.M., SEM
[1] = target: T1, hCTR L298A (Homo sapiens, UniProt P30988, L298A)
T1 construct: c-Myc (N); expressed in transfected cells
T1 sequence (P30988 25-474 L298A): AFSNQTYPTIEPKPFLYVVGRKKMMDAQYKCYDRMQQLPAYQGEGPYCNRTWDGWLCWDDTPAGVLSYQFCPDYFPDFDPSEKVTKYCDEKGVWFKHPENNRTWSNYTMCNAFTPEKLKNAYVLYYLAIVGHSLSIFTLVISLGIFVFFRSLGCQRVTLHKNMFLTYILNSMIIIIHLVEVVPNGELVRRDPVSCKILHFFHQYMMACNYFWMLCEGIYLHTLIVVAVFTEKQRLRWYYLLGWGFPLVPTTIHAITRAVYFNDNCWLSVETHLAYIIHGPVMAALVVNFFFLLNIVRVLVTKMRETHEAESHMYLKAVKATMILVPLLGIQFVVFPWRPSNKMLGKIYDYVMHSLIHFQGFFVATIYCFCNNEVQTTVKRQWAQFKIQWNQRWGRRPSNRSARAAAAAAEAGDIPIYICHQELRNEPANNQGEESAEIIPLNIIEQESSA
Protocol: (§1) Homologous radioligand competition was performed on 2.5 × 10^4 cells/well seeded into 96-well trays and cultured overnight. Cells were incubated overnight at 4 °C with two concentrations of ^125I-sCT(8-32) (between 25 and 100 pM; specific activity, 2000 Ci/mmol^9) and serial dilutions of non-iodinated sCT(8-32). Non-bound ligand was removed and bound ligand activity was measured using a γ counter (Wallac Wizard 1470 Gamma Counter, Perkin Elmer, 80% counter efficiency). Values were normalized against non-specific binding (0%) defined by the presence of 1 μM of unlabelled sCT(8-32), and total ligand bound in absence of competing sCT(8-32) (100%).
(§2) IC50 and Bmax values were estimated from competitive inhibition of ^125I-sCT(8-32) binding using a 3-parameter logistic equation (log(inhibitor versus response)) in Prism (v7; Graphpad). Data were corrected for radioligand occupancy using the Cheng-Prusoff equation in Prism; as such data are reported as pKi. Emax and EC50 were estimated from concentration-response curves using with a 3-parameter logistic equation in Prism (v7). These values are a composite of functional affinity, efficacy and stimulus response coupling. The Black and Leff operational model of agonism was applied to separate effects on pathway-specific efficacy (τ) from those that modify ligand functional affinity (pKA). Derived τ values were normalized to experimentally determined levels of cell surface expression to provide a measure of efficacy (τc) that is independent of affinity and altered cell surface receptor expression. pKi, pKA and log τc values for mutant receptors were statistically compared to those of the WT receptor using a one-way analysis of variance (ANOVA) and Dunnett’s post-test. Significance was accepted at P < 0.05.

[2] = target: T2, hCTR V293A (Homo sapiens, UniProt P30988, V293A)
T2 construct: c-Myc (N); expressed in transfected cells
T2 sequence (P30988 25-474 V293A): T1 sequence (P30988 25-474 L298A) with V269A, A274L
Protocol: as §1, §2

[3] = target: T3, hCTR WT (Homo sapiens, UniProt P30988)
T3 construct: expressed in transfected cells
T3 sequence (P30988 25-474): T1 sequence (P30988 25-474 L298A) with A274L
Protocol: as §1, §2

[4] = target: T4, hCTR V357A (Homo sapiens, UniProt P30988, V357A)
T4 construct: c-Myc (N); expressed in transfected cells
T4 sequence (P30988 25-474 V357A): T1 sequence (P30988 25-474 L298A) with A274L, V333A
Protocol: as §1, §2

Ki [1]: 0.148 nM
Ki [2]: 0.178 nM
Ki [3]: 0.2 nM
Ki [4]: 0.209 nM
Substance: VLGKLSQELHKLQTYPRTNTGSGTP-NH2 [sCT(8-32)]
